System: human multiple myeloma cell line, OPM-2
Assay: Cell viability assay (OPM-2 10 FBS), CellTiter-Glo
Format: cell-based
Details: Homo sapiens, OPM-2, 16 h, read-out: OPM-2 10% FBS IC50 IP, OPM-2 cells, 10% FBS, 16 h, CellTiter-Glo
Method in brief: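 OPM-2 cells at 3000 cells/well in RPMI 1640 with 10% FBS were exposed to serially diluted compounds for 16 h at 37 °C, 5% CO2.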

Row | SMILES | IC50 [µM]
1 | CCN(CC)C(=O)C[C@]1(OC)/C=C/C[C@H](C)[C@@H](C)S(=O)(=O)NC(=O)c2ccc3c(c2)N(C[C@@H]2CC[C@H]21)C[C@@]1(CCCc2cc(Cl)ccc21)CO3 [Example 100347, 2-((1S,3′R,6′R,7′S,8′E,11′S,12′R)-6-chloro-7′-methoxy-11′,12′-dimethyl-13′,13′-dioxido-15′-oxo-3,4-dihydro-2H-spiro[naphthalene-1,22′-[20]oxa[13]thia[1,14]diazatetracyclo [14.7.2.0~3,6~.0~19,24~]pentacosa[8,16,18,24]tetraen]-7′-yl)-N,N-diethylacetamide] | 1.08
2 | CO[C@@]1(CC(=O)N(C)C2CC2)/C=C/C[C@H](C)[C@@H](C)S(=O)(=O)NC(=O)c2ccc3c(c2)N(C[C@@H]2CC[C@H]21)C[C@@]1(CCCc2cc(Cl)ccc21)CO3 [Example 100374, 2-((1S,3′R,6′R,7′S,8′E,11′S,12′R)-6-chloro-7′-methoxy-11′,12′-dimethyl-13′,13′-dioxido-15′-oxo-3,4-dihydro-2H-spiro[naphthalene-1,22′-[20]oxa[13]thia[1,14]diazatetracyclo [14.7.2.0~3,6~.0~19,24~]pentacosa[8,16,18,24]tetraen]-7′-yl)-N-cyclopropyl-N-methylacetamide] | 0.433
3 | C[C@@H]1[C@@H](C)CCC[C@](CO)(CN2CCOCC2)[C@@H]2CC[C@H]2CN2C[C@@]3(CCCc4cc(Cl)ccc43)COc3ccc(cc32)C(=O)NS1(=O)=O [Example 100406, (1S,3′R,6′R,7′R,11′S,12′R)-6-chloro-7′-(hydroxymethyl)-11′,12′-dimethyl-7′-(4-morpholinylmethyl)-3,4-dihydro-2H,15′H-spiro[naphthalene-1,22′-[20]oxa[13]thia[1,14]diazatetracyclo [14.7.2.0~3,6~.0~19,24~]pentacosa[16,18,24]trien]-15′-one 13′,13′-dioxide] | 0.747
4 | C[C@@H]1[C@@H](C)C/C=C/[C@](O)(c2ccc(F)nc2)[C@@H]2CC[C@H]2CN2C[C@@]3(CCCc4cc(Cl)ccc43)COc3ccc(cc32)C(=O)NS1(=O)=O [Example 100420, (1S,3′R,6′R,7′R,8′E,11′S,12′R)-6-chloro-7′-(6-fluoro-3-pyridinyl)-7′-hydroxy-11′,12′-dimethyl-3,4-dihydro-2H,15′H-spiro[naphthalene-1,22′-[20]oxa[13]thia[1,14]diazatetracyclo [14.7.2.0~3,6~.0~19,24~]pentacosa[8,16,18,24]tetraen]-15′-one 13′,13′-dioxide] | 0.161
5 | CO[C@@]1(CC(=O)C2CC2)/C=C/C[C@H](C)[C@@H](C)S(=O)(=O)NC(=O)c2ccc3c(c2)N(C[C@@H]2CC[C@H]21)C[C@@]1(CCCc2cc(Cl)ccc21)CO3 [Example 100443, (1S,3′R,6′R,7′S,8′E,11′S,12′R)-6-chloro-7′-(2-cyclopropyl-2-oxoethyl)-7′-methoxy-11′,12′-dimethyl-3,4-dihydro-2H,15′H-spiro[naphthalene-1,22′-[20]oxa[13]thia[1,14]diazatetracyclo [14.7.2.0~3,6~.0~19,24~]pentacosa[8,16,18,24]tetraen]-15′-one 13′,13′-dioxide] | 0.156
6 | C[C@@H]1[C@@H](C)C/C=C/[C@](O)(C#CCCc2ccccn2)[C@@H]2CC[C@H]2CN2C[C@@]3(CCCc4cc(Cl)ccc43)COc3ccc(cc32)C(=O)NS1(=O)=O [Example 100455, (1S,3′R,6′R,7′R,8′E,11′S,12′R)-6-chloro-7′-hydroxy-11′,12′-dimethyl-7′-(4-(2-pyridinyl)-1-butyn-1-yl)-3,4-dihydro-2H,15′H-spiro[naphthalene-1,22′-[20]oxa[13]thia[1,14]diazatetracyclo [14.7.2.0~3,6~.0~19,24~]pentacosa[8,16,18,24]tetraen]-15′-one 13′,13′-dioxide] | 0.14

Source: US10821115B2, “Compounds that inhibit Mcl-1 protein” (priority 2017, dated 2020)
